Assay: xn = mol fraction of the nth substance listed
Conditions: 101 kPa

CC(=O)[O-].CCCCC[n+]1ccccc1 + O
electrical conductivity [S/m]
Conditions | x1 = 0.9143 | x1 = 0.9163 | x1 = 0.9314 | x1 = 0.948 | x1 = 0.9673 | x2 = 0.0023
293.15 K | 0.0061 | – | – | 0.0049 | 0.0043 | 0.0034
298.15 K | 0.0106 | – | 0.0094 | – | 0.007 | 0.0053
303.15 K | 0.0175 | 0.0173 | – | 0.0128 | 0.0112 | 0.0081
308.15 K | 0.024 | – | – | 0.0185 | 0.0162 | 0.0121
313.15 K | 0.036 | – | 0.0335 | 0.029 | 0.0245 | 0.0179
318.15 K | 0.051 | – | 0.0438 | – | – | 0.0266
323.15 K | 0.071 | – | 0.0623 | 0.0532 | 0.0459 | –
328.15 K | 0.093 | 0.092 | – | 0.0715 | 0.061 | 0.045
333.15 K | – | 0.125 | 0.111 | 0.095 | 0.0805 | 0.0572
338.15 K | – | 0.171 | 0.151 | – | 0.109 | 0.0766
343.15 K | 0.226 | 0.222 | – | 0.17 | 0.138 | 0.0955

Reference: a compilation of properties of binary mixtures (doi:10.1016/j.molliq.2020.114720)
